Molecular target: T1, SLC35E4 (Homo sapiens, UniProt Q6ICL7)
T1 sequence (Q6ICL7 1-350): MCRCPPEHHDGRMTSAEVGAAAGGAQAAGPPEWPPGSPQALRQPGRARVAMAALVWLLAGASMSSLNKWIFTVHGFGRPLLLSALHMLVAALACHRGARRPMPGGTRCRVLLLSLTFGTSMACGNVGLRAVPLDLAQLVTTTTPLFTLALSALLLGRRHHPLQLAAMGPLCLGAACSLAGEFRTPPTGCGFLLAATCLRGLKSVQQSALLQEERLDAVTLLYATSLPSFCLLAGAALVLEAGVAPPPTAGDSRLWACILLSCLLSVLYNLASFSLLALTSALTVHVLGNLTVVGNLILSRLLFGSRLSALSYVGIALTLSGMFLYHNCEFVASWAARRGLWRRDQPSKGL

- Clint (±SEM): 0.17 (±0.36) μl × mg protein^-1 × min^-1
SMILES: C[N+](C)(C)CCO [Choline]

Source: paper PMC11406361, “Several orphan solute carriers functionally identified as organic cation transporters: Substrates specificity compared with known cation transporters” (The Journal of Biological Chemistry, 2024)
